Measured values: patent publication US20190358220A1, “INTEGRATOR INHIBITORS AND METHODS FOR THEIR USE” (UNIVERSITY OF MIAMI, priority 2017, published 2019)

Columns and labels:
[1] = test system: EGF-responsive genes in A549 lung adenocarcinoma cells; experiment: EGF-induced gene expression by Chromatin RNA-seq in A549 cells; type: cell-based, human; settings: A549 cells (KRAS G12S), treated prior to stimulation with EGF
Experimental: In brief, the NEBNext Ultra RNA and the ChIP-Seq Library Prep Kits for Illumina (E7420, E6240, from New England Biolabs) were used to prepare the sequencing library. The sequencing was performed as a 75 bp single-end run using the NextSeq 500 High Output Kit provided by the Oncogenomics Core Facility at the Sylvester Comprehensive Cancer Center in the University of Miami Miller School of Medicine.
RNA-seq data were aligned to human genome (hg19 version) using TopHat2, and differential expression analysis was performed using Cuffdiff 2.2.1 with default parameters. […] The differential expression was considered significant when the q-value <0.05, fold change >2 and FPKM >1 for protein coding genes and FPKM >0.5 for eRNAs. Heat maps were generated using SpotFire with Decision Site for Functional Genomics (SpotFire Inc., Somerville, Mass., USA).

[2] = test system: Integrator and RNAPII recruitment to EGF-responsive IEGs; experiment: ChIP-seq of INTS11 and RNAPII recruitment after EGF stimulation; type: cell-based, human
Experimental: Diagrams of EGR1, FOSB and NR4A1 genomic regions are indicated at the bottom. FIGS. 5B and 5C show the average profiles of INTS11 (top) and RNAPII (bottom) recruitment at 106 EGF-induced genes (FIG. 5B) and 106 control genes (FIG. 5C). ChIP-seq was performed before and after 20 minutes of EGF-induction, with or without the presence of ERK inhibitor. The average analysis was performed using two independent biological replicates.
ChIP-seq for INTS11 and RNAPII was performed before and after treatment of cells with ERK1/2 inhibitor (SCH772984). […] This was manifested by decreased occupancy of Integrator and RNAPII at the 5′-end and body of EGF-responsive genes (FIGS. 5A-5C). […]
ChIP-seq data analysis was performed as previously described. […] In brief, FASTQ data were processed with Trimmomatic to remove low-quality reads and then aligned to the human genome hg19 using bowtie2. […] In brief, RNAPII ChIP-seq density at the TSS (−30 bp to +300 bp) was divided by the read density over the rest of the gene body, plus an additional 1 kb beyond the transcription end site (TES). The log10(ratio) of genes (EGF, control and ERK inhibitor treatment) were calculated using all different isoforms available in the Hg19 RefSeq Annotation Table that were considered express (FPKM >1 in EGF treatment conditions) in our analysis.

[3] = test system: IMR90 human fibroblasts and BEAS-2B normal lung epithelial cells; experiment: Cell viability of normal cells; type: cell-based; settings: IMR90 and BEAS-2B
Experimental: The cells were plated 5000 per well in 96-well black plates with a clear bottom and maintained under normal conditions over night before the drug treatment. The cell viability was measured 4 days after treatment using PrestoBlue (Invitrogen cat No A13261). GraphPad Prism software was used to generate dose response curves and calculate IC50 values. Each experiment was repeated at least three times.

`O=C(Nc1ccc2[nH]nc(-c3ccncc3)c2c1)[C@@H]1CCN(CC(=O)N2CCN(c3ccc(-c4ncccn4)cc3)CC2)C1` [SCH772984] was tested, and the “EGF responsiveness of EGF-responsive genes” value [1] was “specifically diminished the EGF responsiveness of most EGF-responsive genes”, the “recruitment of Integrator and RNAPII to EGF-responsive IEGs” value ([2]; before and after 20 minutes of EGF induction) was “diminished the immediate-early recruitment of Integrator and RNAPII” and the “transcriptional elongation (RNAPII traveling ratio)” value ([2]; following EGF induction) was “substantially decreased transcriptional elongation”.
`O=C1C(=O)c2cccnc2-c2ncccc21` [phendione, 1,10-phenanthroline-5,6-dione] was tested, and the “sensitivity of normal cells (cell viability)” value [3] was “sensitive to phendione”.
